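How tested: cells in 96-well plates exposed to compound for 48 hours at five concentrations. TGI: concentration producing complete growth inhibition.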
Assays:
Test in all cases: inhibition of tumour cell growth, NCI panel, 48 h
BT-549 breast = system: BT-549 breast
SF-268 CNS = system: SF-268 CNS
NCI-H460 lung = system: NCI-H460 lung
NCI-H226 lung = system: NCI-H226 lung
MCF7 breast = system: MCF7 breast
A498 renal = system: A498 renal
M14 melanoma = system: M14 melanoma
SNB-75 CNS = system: SNB-75 CNS
SK-OV-3 ovarian = system: SK-OV-3 ovarian
U251 CNS = system: U251 CNS
HT29 colon = system: HT29 colon
CCRF-CEM leukemia = system: CCRF-CEM leukemia
ACHN renal = system: ACHN renal
DU-145 prostate = system: DU-145 prostate
HS 578T breast = system: HS 578T breast
HOP-62 NSCLC = system: HOP-62 NSCLC
SK-MEL-2 melanoma = system: SK-MEL-2 melanoma
MALME-3M melanoma = system: MALME-3M melanoma
HL-60(TB) leukemia = system: HL-60(TB) leukemia
SK-MEL-5 melanoma = system: SK-MEL-5 melanoma
CAKI-1 renal = system: CAKI-1 renal
SF-295 CNS = system: SF-295 CNS
IGROV1 ovarian = system: IGROV1 ovarian
HCT-15 colon = system: HCT-15 colon
MDA-MB-231 breast = system: MDA-MB-231 breast
OVCAR-5 ovarian = system: OVCAR-5 ovarian
UO-31 renal = system: UO-31 renal
RXF 393 renal = system: RXF 393 renal
TK-10 renal = system: TK-10 renal
SF-539 CNS = system: SF-539 CNS
EKVX NSCLC = system: EKVX NSCLC
UACC-62 melanoma = system: UACC-62 melanoma
PC-3 prostate = system: PC-3 prostate
OVCAR-8 ovarian = system: OVCAR-8 ovarian
NCI/ADR-RES ovarian = system: NCI/ADR-RES ovarian
SNB-19 CNS = system: SNB-19 CNS
NCI-H522 lung = system: NCI-H522 lung
HCT-116 colon = system: HCT-116 colon
COLO 205 colon = system: COLO 205 colon
MOLT-4 leukemia = system: MOLT-4 leukemia
HCC-2998 colon = system: HCC-2998 colon
SK-MEL-28 melanoma = system: SK-MEL-28 melanoma
LOX IMVI melanoma = system: LOX IMVI melanoma
T-47D breast = system: T-47D breast
OVCAR-3 ovarian = system: OVCAR-3 ovarian
OVCAR-4 ovarian = system: OVCAR-4 ovarian
KM12 colon = system: KM12 colon
NCI-H23 lung = system: NCI-H23 lung
SR leukemia = system: SR leukemia
UACC-257 melanoma = system: UACC-257 melanoma
SN12C renal = system: SN12C renal
A549 NSCLC = system: A549 NSCLC
SW-620 colon = system: SW-620 colon
MDA-MB-435 = system: MDA-MB-435
786-0 renal = system: 786-0 renal
MDA-N = system: MDA-N
HOP-92 NSCLC = system: HOP-92 NSCLC
RPMI-8226 leukemia = system: RPMI-8226 leukemia
K-562 leukemia = system: K-562 leukemia

N#Cc1c(C#N)c(SSc2c(C#N)c(C#N)c(N)n2-c2ccc(F)cc2)n(-c2ccc(F)cc2)c1N
TGI (BT-549 breast): 7.2 µM
TGI (SF-268 CNS): 48.2 µM
TGI (NCI-H460 lung): 41.2 µM
TGI (NCI-H226 lung): 46 µM
TGI (MCF7 breast): > 24.8 µM
TGI (A498 renal): 18.9 µM
TGI (M14 melanoma): 9.07 µM
TGI (SNB-75 CNS): 32.6 µM
TGI (SK-OV-3 ovarian): 31.4 µM
TGI (U251 CNS): 40.1 µM
TGI (HT29 colon): 36.5 µM
TGI (CCRF-CEM leukemia): 4.62 µM
TGI (ACHN renal): 8.55 µM
TGI (DU-145 prostate): 30.6 µM
TGI (HS 578T breast): > 58.3 µM
TGI (HOP-62 NSCLC): 33.2 µM
TGI (SK-MEL-2 melanoma): 44 µM
TGI (MALME-3M melanoma): 3.28 µM
TGI (HL-60(TB) leukemia): 4.44 µM
TGI (SK-MEL-5 melanoma): 31.1 µM
TGI (CAKI-1 renal): 21.1 µM
TGI (SF-295 CNS): 31.8 µM
TGI (IGROV1 ovarian): 37.9 µM
TGI (HCT-15 colon): 4.25 µM
TGI (MDA-MB-231 breast): 37.6 µM
TGI (OVCAR-5 ovarian): 30.9 µM
TGI (UO-31 renal): 3.87 µM
TGI (RXF 393 renal): 8.48 µM
TGI (TK-10 renal): 8.27 µM
TGI (SF-539 CNS): 35.6 µM
TGI (EKVX NSCLC): 5.13 µM
TGI (UACC-62 melanoma): 31.7 µM
TGI (PC-3 prostate): 33.3 µM
TGI (OVCAR-8 ovarian): 32.4 µM
TGI (NCI/ADR-RES ovarian): 59.4 µM
TGI (SNB-19 CNS): 42.6 µM
TGI (NCI-H522 lung): 4.11 µM
TGI (HCT-116 colon): 3.38 µM
TGI (COLO 205 colon): 3.76 µM
TGI (MOLT-4 leukemia): 2.99 µM
TGI (HCC-2998 colon): 45.3 µM
TGI (SK-MEL-28 melanoma): 19.9 µM
TGI (LOX IMVI melanoma): 59.9 µM
TGI (T-47D breast): 7.96 µM
TGI (OVCAR-3 ovarian): 6.92 µM
TGI (OVCAR-4 ovarian): > 100 µM
TGI (KM12 colon): 44.3 µM
TGI (NCI-H23 lung): 14.3 µM
TGI (SR leukemia): 1.98 µM
TGI (UACC-257 melanoma): 32.5 µM
TGI (SN12C renal): 31.5 µM
TGI (A549 NSCLC): 36.7 µM
TGI (SW-620 colon): 5.59 µM
TGI (MDA-MB-435): 19.2 µM
TGI (786-0 renal): 3.22 µM
TGI (MDA-N): 10.8 µM
TGI (HOP-92 NSCLC): 7.82 µM

CCOC(=O)C(C(N)=O)c1nc2cc([N+](=O)[O-])ccc2nc1/C=C(\O)c1ccccc1 (stereo unspecified)
TGI (BT-549 breast): 49.9 µM
TGI (SF-268 CNS): 32.1 µM
TGI (NCI-H460 lung): 26.1 µM
TGI (NCI-H226 lung): > 100 µM
TGI (MCF7 breast): 24.8 µM
TGI (A498 renal): 33.2 µM
TGI (M14 melanoma): 34.3 µM
TGI (SNB-75 CNS): 43.1 µM
TGI (SK-OV-3 ovarian): 29 µM
TGI (U251 CNS): 23.4 µM
TGI (HT29 colon): 45.3 µM
TGI (RPMI-8226 leukemia): 27.1 µM
TGI (ACHN renal): 30.7 µM
TGI (DU-145 prostate): 31 µM
TGI (HS 578T breast): 51.2 µM
TGI (HOP-62 NSCLC): 22.9 µM
TGI (SK-MEL-2 melanoma): 30.4 µM
TGI (MALME-3M melanoma): 36.7 µM
TGI (HL-60(TB) leukemia): 26 µM
TGI (SK-MEL-5 melanoma): 30.4 µM
TGI (CAKI-1 renal): 52 µM
TGI (SF-295 CNS): 42.5 µM
TGI (IGROV1 ovarian): 24.8 µM
TGI (HCT-15 colon): 28.4 µM
TGI (MDA-MB-231 breast): 27 µM
TGI (OVCAR-5 ovarian): 83.3 µM
TGI (UO-31 renal): 36.6 µM
TGI (RXF 393 renal): 39.3 µM
TGI (TK-10 renal): 22.9 µM
TGI (SF-539 CNS): 30.2 µM
TGI (EKVX NSCLC): 76.5 µM
TGI (UACC-62 melanoma): 34.9 µM
TGI (PC-3 prostate): 30.2 µM
TGI (OVCAR-8 ovarian): 30 µM
TGI (NCI/ADR-RES ovarian): 34.8 µM
TGI (SNB-19 CNS): 44.5 µM
TGI (NCI-H522 lung): 29.3 µM
TGI (HCT-116 colon): 32.7 µM
TGI (COLO 205 colon): 36.5 µM
TGI (HCC-2998 colon): 21.7 µM
TGI (SK-MEL-28 melanoma): 86.9 µM
TGI (LOX IMVI melanoma): 28.7 µM
TGI (K-562 leukemia): 13.9 µM
TGI (T-47D breast): 71.8 µM
TGI (OVCAR-3 ovarian): 22 µM
TGI (OVCAR-4 ovarian): 34.7 µM
TGI (KM12 colon): 26.5 µM
TGI (NCI-H23 lung): 23.7 µM
TGI (SR leukemia): 16.5 µM
TGI (UACC-257 melanoma): 40.4 µM
TGI (SN12C renal): 64.4 µM
TGI (A549 NSCLC): 32.8 µM
TGI (SW-620 colon): 33.9 µM
TGI (MDA-MB-435): 31.3 µM
TGI (786-0 renal): 25.5 µM
TGI (MDA-N): 40.4 µM
TGI (HOP-92 NSCLC): 39.1 µM

CCCCCCC(C)c1ccc2c(c1)C(=O)c1nc3ccncc3c(=O)n1-2 (stereo unspecified)
TGI (BT-549 breast): > 33.8 µM
TGI (SF-268 CNS): > 100 µM
TGI (NCI-H460 lung): > 34.7 µM
TGI (NCI-H226 lung): > 32.3 µM
TGI (MCF7 breast): 32.7 µM
TGI (A498 renal): > 100 µM
TGI (M14 melanoma): 11.4 µM
TGI (SNB-75 CNS): > 32.2 µM
TGI (SK-OV-3 ovarian): > 100 µM
TGI (U251 CNS): > 45 µM
TGI (HT29 colon): 8.78 µM
TGI (CCRF-CEM leukemia): 5.83 µM
TGI (RPMI-8226 leukemia): 3.97 µM
TGI (ACHN renal): > 29.5 µM
TGI (DU-145 prostate): > 35.1 µM
TGI (HS 578T breast): 25.6 µM
TGI (HOP-62 NSCLC): 35.7 µM
TGI (SK-MEL-2 melanoma): 18.7 µM
TGI (MALME-3M melanoma): 0.9 µM
TGI (HL-60(TB) leukemia): 1.18 µM
TGI (SK-MEL-5 melanoma): > 25.4 µM
TGI (CAKI-1 renal): > 39.6 µM
TGI (SF-295 CNS): 20.2 µM
TGI (IGROV1 ovarian): > 34.4 µM
TGI (HCT-15 colon): > 57.7 µM
TGI (MDA-MB-231 breast): > 100 µM
TGI (OVCAR-5 ovarian): 21.7 µM
TGI (UO-31 renal): > 35.7 µM
TGI (RXF 393 renal): 14.7 µM
TGI (TK-10 renal): > 65.8 µM
TGI (SF-539 CNS): 20.3 µM
TGI (EKVX NSCLC): > 43.4 µM
TGI (UACC-62 melanoma): > 36.9 µM
TGI (PC-3 prostate): 16.1 µM
TGI (OVCAR-8 ovarian): > 45.2 µM
TGI (NCI/ADR-RES ovarian): 15.7 µM
TGI (SNB-19 CNS): > 33 µM
TGI (HCT-116 colon): > 36.8 µM
TGI (COLO 205 colon): > 39.1 µM
TGI (MOLT-4 leukemia): 4.09 µM
TGI (HCC-2998 colon): > 20.5 µM
TGI (SK-MEL-28 melanoma): > 31.5 µM
TGI (K-562 leukemia): 2.91 µM
TGI (T-47D breast): > 40.8 µM
TGI (OVCAR-3 ovarian): 9.12 µM
TGI (OVCAR-4 ovarian): 10.3 µM
TGI (KM12 colon): > 30.5 µM
TGI (NCI-H23 lung): > 31.4 µM
TGI (SR leukemia): 2.57 µM
TGI (UACC-257 melanoma): > 32.1 µM
TGI (SN12C renal): > 34.9 µM
TGI (A549 NSCLC): 35.2 µM
TGI (SW-620 colon): > 30.6 µM
TGI (MDA-MB-435): 1.17 µM
TGI (786-0 renal): > 45.3 µM
TGI (MDA-N): 0.6 µM
TGI (HOP-92 NSCLC): > 100 µM

Source: PubChem BioAssay (NCI)
